Measurements reported in patent US7109243B2 (IRM LLC, priority 2003, dated 2006).

Tests used:
Cathepsin S = Cathepsin S (Homo sapiens, UniProt P25774); assay: Cathepsin S inhibition assay (fluorogenic peptide substrate); type: biochemical; settings: Table II, compounds of Formula I; read-out: Ki Cat. S
Method: “Inhibition constant”, Ki, is the dissociation constant of the enzyme-inhibitor complex, or the reciprocal of the binding affinity of the inhibitor to the enzyme. […] The inhibited rates are then fit by nonlinear regression to the following equation: […]
The assumption being made for the classical inhibition described above is that the free inhibitor concentration is equal to the total inhibitor concentration.
Kinetic measurements are performed in a total reaction volume of 30 μl in 384-well microtiter plates. […] The reactions are initiated by adding the substrate, acetyl-histidine-proline-valine-lysine-amino carbamoyl coumarin, to a final concentration of 50 μM. The rate of substrate hydrolysis is measured by monitoring the increase in fluorescence at an excitation wavelength of 380 nm and an emission wavelength of 450 nm that results from cleavage of the aniline bond in the substrate by the enzyme.

Cathepsin K = biological target: T1, Cathepsin K (Homo sapiens, UniProt P43235); assay: Cathepsin K inhibition assay (fluorogenic peptide substrate); selectivity ratio vs cathepsin S; type: biochemical; settings: ratio of cathepsin K inhibition constant to cathepsin S inhibition constant; Table II
T1 sequence (P43235 115-329): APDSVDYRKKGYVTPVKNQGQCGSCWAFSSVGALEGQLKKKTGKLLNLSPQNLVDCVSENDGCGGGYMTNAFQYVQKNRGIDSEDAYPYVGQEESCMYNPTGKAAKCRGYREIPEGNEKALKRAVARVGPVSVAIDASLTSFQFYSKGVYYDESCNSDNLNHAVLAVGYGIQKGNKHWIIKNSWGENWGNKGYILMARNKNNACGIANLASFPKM
Method: The optimal substrate for cathepsin K, acetyl-lysine-histidine-proline-lysine-amino carbamoyl coumarin, was identified from screening a combinatorial library of fluorogenic peptide substrates (Harris, J. L., B. J. Backes, et al., Proc Natl Acad Sci USA 2000, 97(14), 7754-9). Kinetic measurements are performed in a total reaction volume of 30 μl in 384-well microtiter plates. […] The reactions are initiated by adding the substrate, acetyl-lysine-histidine-proline-lysine-amino carbamoyl coumarin, to a final concentration of 40 μM. The rate of substrate hydrolysis is measured by monitoring the increase in fluorescence at an excitation wavelength of 380 nm and an emission wavelength of 450 nm that results from cleavage of the aniline bond in the substrate by the enzyme. The apparent inhibition constants for the compounds are determined from the enzyme progress curves ([…]. Elrod, et al., Anal Biochem 2000, 286(1), 45-50) and are then used to calculate the inhibition constants for competitive inhibitors. Selectivity for cathepsin S in the presence of cathepsin isozymes was determined by the ratio of the cathepsin isozyme inhibition constant of a compound of the present invention to the cathepsin S inhibition constant of the same compound.

Sequence of Cathepsin S (P25774 115-331, species assumed): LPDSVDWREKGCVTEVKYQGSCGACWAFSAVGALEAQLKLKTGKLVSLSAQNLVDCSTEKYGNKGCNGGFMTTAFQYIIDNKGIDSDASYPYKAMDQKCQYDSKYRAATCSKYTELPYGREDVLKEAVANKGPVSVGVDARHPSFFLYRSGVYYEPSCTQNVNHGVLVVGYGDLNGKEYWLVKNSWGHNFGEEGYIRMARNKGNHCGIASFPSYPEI

O=C(N[C@@H](CC1CCCCC1)C(=O)NCCNc1ccc(F)cc1)C(F)c1ccccc1 (mixture of isomers) [Compound 86, 3-Cyclohexyl-2-(S)-(2-(R,S)-fluoro-2-phenyl-acetylamino)-N-[2-(4-fluoro-phenylamino)-ethyl]-propionamide]
Ki (Cathepsin S): < 100 nM | Selectivity for Cat. S over Cat. K (Cathepsin K): ++ (++, >100)

CC(C(=O)NC(CC1CCCCC1)C(=O)NCCNc1ccc(F)cc1)c1ccc(F)cc1 (mixture of isomers) [Compound 320, N-(S)-{2-cyclohexyl-1-[2-(4-fluoro-phenylamino)-ethylcarbamoyl]-ethyl}-2-(R,S)-(4-fluoro-phenyl)-propionamide]
Ki (Cathepsin S): < 100 nM | Selectivity for Cat. S over Cat. K (Cathepsin K): ++ (++, >100)

COc1ccc(NCCNC(=O)C(NC(=O)c2cccc(C)c2)c2ccc(Cl)cc2)cc1 (racemic) [Compound 8, (±)-N-((2-(4-methoxyphenylamino)ethylcarbamoyl)(4-chlorophenyl)methyl)-3-methylbenzamide]
Ki (Cathepsin S): < 100 nM | Selectivity for Cat. S over Cat. K (Cathepsin K): +++ (+++, >1000)

COc1ccc(NCCNC(=O)C(NC(=O)c2ccc(-c3cccc(C(F)(F)F)c3)o2)c2ccccc2)cc1 (racemic) [Compound 9, (±)-N-((2-(4-methoxyphenylamino)ethylcarbamoyl)(phenyl)-methyl)-5-(3-(trifluoromethyl)phenyl)furan-2-carboxamide]
Ki (Cathepsin S): < 1000 nM | Selectivity for Cat. S over Cat. K (Cathepsin K): + (+, >10)

COc1ccc(NCCNC(=O)[C@H](CCc2ccccc2)NC(=O)c2ccc(-c3cccc(C(F)(F)F)c3)o2)cc1 [Compound 1, N-((S)-1-(2-(4-methoxyphenylamino)ethylcarbamoyl)-3-phenylpropyl)-5-(3-(trifluoromethyl)phenyl)furan-2-carboxamide]
Ki (Cathepsin S): < 1000 nM | Selectivity for Cat. S over Cat. K (Cathepsin K): ++ (++, >100)

COc1ccc(NCCNC(=O)[C@H](Cc2ccccc2Cl)NC(=O)c2ccc(-c3cccc(C(F)(F)F)c3)o2)cc1 [Compound 2, N-((S)-1-(2-(4-methoxyphenylamino)ethylcarbamoyl)-2-(2-chlorophenyl)ethyl)-5-(3-(trifluoromethyl)phenyl)furan-2-carboxamide]
Ki (Cathepsin S): < 100 nM | Selectivity for Cat. S over Cat. K (Cathepsin K): + (+, >10)

COc1ccc(NCCNC(=O)[C@H](Cc2cccc(Cl)c2)NC(=O)c2ccc(-c3cccc(C(F)(F)F)c3)o2)cc1 [Compound 3, N-((S)-1-(2-(4-methoxyphenylamino)ethylcarbamoyl)-2-(3-chlorophenyl)ethyl)-5-(3-(trifluoromethyl)phenyl)furan-2-carboxamide]
Ki (Cathepsin S): < 100 nM | Selectivity for Cat. S over Cat. K (Cathepsin K): +++ (+++, >1000)

COc1ccc(NCCNC(=O)[C@H](Cc2ccc(Cl)cc2)NC(=O)c2ccc(-c3cccc(C(F)(F)F)c3)o2)cc1 [Compound 4, N-((S)-1-(2-(4-methoxyphenylamino)ethylcarbamoyl)-2-(4-chlorophenyl)ethyl)-5-(3-(trifluoromethyl)phenyl)furan-2-carboxamide]
Ki (Cathepsin S): < 100 nM | Selectivity for Cat. S over Cat. K (Cathepsin K): +++ (+++, >1000)

COc1ccc(NCCNC(=O)[C@H](CC2CCOCC2)NC(=O)c2ccc(-c3cccc(C(F)(F)F)c3)o2)cc1 [Compound 5, N-((S)-1-(2-(4-methoxyphenylamino)ethylcarbamoyl)-2-(tetrahydro-2H-pyran-4-yl)ethyl)-5-(3-(trifluoromethyl)phenyl)furan-2-carboxamide]
Ki (Cathepsin S): < 1000 nM | Selectivity for Cat. S over Cat. K (Cathepsin K): + (+, >10)

COc1ccc(NCCNC(=O)[C@H](CC2CCCC2)NC(=O)c2ccc(-c3cccc(C(F)(F)F)c3)o2)cc1 [Compound 6, N-((S)-1-(2-(4-methoxyphenylamino)ethylcarbamoyl)-2-cyclopentylethyl)-5-(3-(trifluoromethyl)phenyl)furan-2-carboxamide]
Ki (Cathepsin S): < 100 nM | Selectivity for Cat. S over Cat. K (Cathepsin K): ++ (++, >100)

COc1ccc(NCCNC(=O)[C@H](Cc2ccc(Oc3cccc(C)c3C)cc2)NC(=O)c2cccc(C)c2)cc1 [Compound 7, (S)-N-{2-[4-(2,3-Dimethyl-phenoxy)-phenyl]-1-[2-(4-methoxy-phenylamino)-ethylcarbamoyl]-ethyl}-3-methyl-benzamide]
Ki (Cathepsin S): < 1000 nM | Selectivity for Cat. S over Cat. K (Cathepsin K): ++ (++, >100)

O=C(N[C@@H](CC1CCCCC1)C(=O)NCCNc1ccc(OC(F)F)cc1)c1ccc(-c2cccc(C(F)(F)F)c2)o1 [Compound 10, N-((S)-1-(2-(4-(difluoromethoxy)phenylamino)ethylcarbamoyl)-2-cyclohexylethyl)-5-(3-(trifluoromethyl)phenyl)furan-2-carboxamide]
Ki (Cathepsin S): < 100 nM | Selectivity for Cat. S over Cat. K (Cathepsin K): +++ (+++, >1000)

O=C(O)c1ccc(NCCNC(=O)[C@H](CC2CCCCC2)NC(=O)c2ccc(-c3cccc(C(F)(F)F)c3)o2)cc1 [Compound 11, 4-[2-(3-Cyclohexyl-2-(S)-{[5-(3-trifluoromethyl-phenyl)-furan-2-carbonyl]-amino}-propionylamino)-ethylamino]-benzoic acid]
Ki (Cathepsin S): < 100 nM | Selectivity for Cat. S over Cat. K (Cathepsin K): + (+, >10)

O=C(N[C@@H](CC1CCCCC1)C(=O)NCCNc1ccccc1C(=O)O)c1ccc(-c2cccc(C(F)(F)F)c2)o1 [Compound 12, 2-[2-(3-Cyclohexyl-2-(S)-{[5-(3-trifluoromethyl-phenyl)-furan-2-carbonyl]-amino}-propionylamino)-ethylamino]-benzoic acid]
Ki (Cathepsin S): < 100 nM | Selectivity for Cat. S over Cat. K (Cathepsin K): + (+, >10)

C[C@@H](C(=O)N[C@@H](CCC1CCCCC1)C(=O)NCCNc1ccc(OC(F)(F)F)cc1)c1ccccc1 [Compound 13, 4-Cyclohexyl-2-(S)-(2-(R)-phenyl-propionylamino)-N-[2-(4-trifluoromethoxy-phenylamino)-ethyl]-butyramide]
Ki (Cathepsin S): < 100 nM | Selectivity for Cat. S over Cat. K (Cathepsin K): +++ (+++, >1000)

CC(=O)N1CCC(C(=O)N[C@@H](CC2CCCCC2)C(=O)NCCNc2ccc(OC(F)(F)F)cc2)CC1 [Compound 14, 1-Acetyl-piperidine-4-carboxylic acid (S)-{2-cyclohexyl-1-[2-(4-trifluoromethoxy-phenylamino)-ethylcarbamoyl]-ethyl}-amide]
Ki (Cathepsin S): < 1000 nM | Selectivity for Cat. S over Cat. K (Cathepsin K): ++ (++, >100)

CC(=O)N1CCN(c2ccc(OCC(=O)N[C@@H](CC3CCCCC3)C(=O)NCCNc3ccc(OC(F)(F)F)cc3)cc2)CC1 [Compound 15, (S)-2-{2-[4-(4-Acetyl-piperazin-1-yl)-phenoxy]-acetylamino}-3-cyclohexyl-N-[2-(4-trifluoromethoxy-phenylamino)-ethyl]-propionamide]
Ki (Cathepsin S): < 1000 nM | Selectivity for Cat. S over Cat. K (Cathepsin K): + (+, >10)

(S)-3-Bromo-N-{1-[2-(4-methoxy-phenylamino)-ethylcarbamoyl]-2-phenyl-ethyl}-4-methyl-benzamide [Compound 24]
Selectivity for Cat. S over Cat. K (Cathepsin K): + (+, >10)
